Where two headings read alike, the source gives them in different places.
Experiments:
[1] = test system: mouse FL5.12 cells transfected with Bcl-XL; assay: FL5.12 cellular assay (cell viability, CellTiter-Glo); assay type: cell-based; conditions: FL5.12 cells transfected with Bcl-XL, IL-3-depleted, 3% FBS assay media, 24 hours, CellTiter-Glo, read-out: FL5.12 Bcl-xL, - IL3, EC 50;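 further: each EC50 determination derived from duplicate measurements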
GST-Bcl-xL = GST-Bcl-xL (Homo sapiens, UniProt Q07817); conditions: read-out: TR-FRET binding Bcl-xL Ki
Chain of GST-Bcl-xL (Q07817 whole entry): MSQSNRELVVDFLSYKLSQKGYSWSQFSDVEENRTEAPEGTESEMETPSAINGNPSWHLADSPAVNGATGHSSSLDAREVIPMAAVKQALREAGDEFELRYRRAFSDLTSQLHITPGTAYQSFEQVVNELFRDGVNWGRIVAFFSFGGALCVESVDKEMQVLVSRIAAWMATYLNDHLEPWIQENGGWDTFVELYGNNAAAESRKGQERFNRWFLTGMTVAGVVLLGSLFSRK

Compound | EC50 ([1]; Mus musculus) [nM] | Ki (GST-Bcl-xL) [nM] | EC50 [1] [nM]
O=C(Nc1nc2ccccc2s1)c1cccc2c1CN(c1ccc(-c3cn(Cc4ccccc4)c4ncccc34)c(C(=O)O)n1)CC2 [Example 141, 6-[8-(1,3-benzothiazol-2-ylcarbamoyl)-3,4-dihydroisoquinolin-2(1H)-yl]-3-(1-benzyl-1H-pyrrolo[2,3-b]pyridin-3-yl)pyridine-2-carboxylic acid] | 433 | 1 | –
Cc1c(-c2ccc(N3CCc4cccc(C(=O)Nc5nc6ccccc6s5)c4C3)nc2C(=O)O)ccnc1Oc1ccccc1 [Example 142, 6-[8-(1,3-benzothiazol-2-ylcarbamoyl)-3,4-dihydroisoquinolin-2(1H)-yl]-3'-methyl-2'-phenoxy-3,4'-bipyridine-2-carboxylic acid] | > 1000 | 0.5 | –
Cc1c(-c2ccc(N3CCc4cccc(C(=O)Nc5nc6ccccc6s5)c4C3)nc2C(=O)O)ccnc1N(C)c1ccccc1 [Example 143, 6-[8-(1,3-benzothiazol-2-ylcarbamoyl)-3,4-dihydroisoquinolin-2(1H)-yl]-3'-methyl-2'-[methyl(phenyl)amino]-3,4'-bipyridine-2-carboxylic acid] | 19 | < 0.1 | –
COCC1(Cn2ncc(-c3ccc(N4CCc5cccc(C(=O)Nc6nc7ccccc7s6)c5C4)nc3C(=O)O)c2C)CCCCC1 [Example 144, 6-[8-(1,3-benzothiazol-2-ylcarbamoyl)-3,4-dihydroisoquinolin-2(1H)-yl]-3-(1-{[1-(methoxymethyl)cyclohexyl]methyl}-5-methyl-1H-pyrazol-4-yl)pyridine-2-carboxylic acid] | 213 | < 0.1 | –
Cc1c(-c2ccc(N3CCc4cccc(C(=O)Nc5nc6ccccc6s5)c4C3)nc2C(=O)O)cnn1CC1(N2CCOCC2)CCCC(C)(C)C1 (stereo not drawn) [Example 145, 6-[8-(1,3-benzothiazol-2-ylcarbamoyl)-3,4-dihydroisoquinolin-2(1H)-yl]-3-(1-{[3,3-dimethyl-1-(morpholin-4-yl)cyclohexyl]methyl}-5-methyl-1H-pyrazol-4-yl)pyridine-2-carboxylic acid] | 0.2 | < 0.1 | –
COCCC1(Cn2ncc(-c3ccc(N4CCc5cccc(C(=O)Nc6nc7ccccc7s6)c5C4)nc3C(=O)O)c2C)CCCC(C)(C)C1 (stereo not drawn) [Example 146, 6-[8-(1,3-benzothiazol-2-ylcarbamoyl)-3,4-dihydroisoquinolin-2(1H)-yl]-3-(1-{[1-(2-methoxyethyl)-3,3-dimethylcyclohexyl]methyl}-5-methyl-1H-pyrazol-4-yl)pyridine-2-carboxylic acid] | 11 | < 0.1 | –
COCCCC1(Cn2ncc(-c3ccc(N4CCc5cccc(C(=O)Nc6nc7ccccc7s6)c5C4)nc3C(=O)O)c2C)CCCCCC1 [Example 147, 6-[8-(1,3-benzothiazol-2-ylcarbamoyl)-3,4-dihydroisoquinolin-2(1H)-yl]-3-(1-{[1-(3-methoxypropyl)cycloheptyl]methyl}-5-methyl-1H-pyrazol-4-yl)pyridine-2-carboxylic acid] | – | < 0.1 | 1
COCCC1(Cn2ncc(-c3ccc(N4CCc5cccc(C(=O)Nc6nc7ccccc7s6)c5C4)nc3C(=O)NS(C)(=O)=O)c2C)CCCCCC1 [Example 148, N-(1,3-benzothiazol-2-yl)-2-{5-(1-{[1-(2-methoxyethyl)cycloheptyl]methyl}-5-methyl-1H-pyrazol-4-yl)-6-[(methylsulfonyl)carbamoyl]pyridin-2-yl}-1,2,3,4-tetrahydroisoquinoline-8-carboxamide] | 13 | < 0.1 | –
COCCOC1(Cn2ncc(-c3ccc(N4CCc5cccc(C(=O)Nc6nc7ccccc7s6)c5C4)nc3C(=O)O)c2C)CCCCCC1 [Example 151, 6-[8-(1,3-benzothiazol-2-ylcarbamoyl)-3,4-dihydroisoquinolin-2(1H)-yl]-3-(1-{[1-(2-methoxyethoxy)cycloheptyl]methyl}-5-methyl-1H-pyrazol-4-yl)pyridine-2-carboxylic acid] | 0.6 | < 0.1 | –
